Assay results as given in patent US8959984B2, “Proteome-wide quantification of small molecule binding to cellular target proteins” (priority 2007, dated 2015).
Like-named read-outs stand apart in the source and are kept apart here.

Key:
RIPK2 = RIPK2 (Homo sapiens, UniProt O43353); assay: binding to immobilized V16742 (IVA1/IVA2, HeLa lysate, MS)
JNK2 = JNK2 (Homo sapiens, UniProt P45984); assay: as above
BRD4 = BRD4 (Homo sapiens, UniProt O60885); assay: as above
JAK1 = JAK1 (Homo sapiens, UniProt P23458); assay: as above
Sequence of JAK1 (P23458 whole entry): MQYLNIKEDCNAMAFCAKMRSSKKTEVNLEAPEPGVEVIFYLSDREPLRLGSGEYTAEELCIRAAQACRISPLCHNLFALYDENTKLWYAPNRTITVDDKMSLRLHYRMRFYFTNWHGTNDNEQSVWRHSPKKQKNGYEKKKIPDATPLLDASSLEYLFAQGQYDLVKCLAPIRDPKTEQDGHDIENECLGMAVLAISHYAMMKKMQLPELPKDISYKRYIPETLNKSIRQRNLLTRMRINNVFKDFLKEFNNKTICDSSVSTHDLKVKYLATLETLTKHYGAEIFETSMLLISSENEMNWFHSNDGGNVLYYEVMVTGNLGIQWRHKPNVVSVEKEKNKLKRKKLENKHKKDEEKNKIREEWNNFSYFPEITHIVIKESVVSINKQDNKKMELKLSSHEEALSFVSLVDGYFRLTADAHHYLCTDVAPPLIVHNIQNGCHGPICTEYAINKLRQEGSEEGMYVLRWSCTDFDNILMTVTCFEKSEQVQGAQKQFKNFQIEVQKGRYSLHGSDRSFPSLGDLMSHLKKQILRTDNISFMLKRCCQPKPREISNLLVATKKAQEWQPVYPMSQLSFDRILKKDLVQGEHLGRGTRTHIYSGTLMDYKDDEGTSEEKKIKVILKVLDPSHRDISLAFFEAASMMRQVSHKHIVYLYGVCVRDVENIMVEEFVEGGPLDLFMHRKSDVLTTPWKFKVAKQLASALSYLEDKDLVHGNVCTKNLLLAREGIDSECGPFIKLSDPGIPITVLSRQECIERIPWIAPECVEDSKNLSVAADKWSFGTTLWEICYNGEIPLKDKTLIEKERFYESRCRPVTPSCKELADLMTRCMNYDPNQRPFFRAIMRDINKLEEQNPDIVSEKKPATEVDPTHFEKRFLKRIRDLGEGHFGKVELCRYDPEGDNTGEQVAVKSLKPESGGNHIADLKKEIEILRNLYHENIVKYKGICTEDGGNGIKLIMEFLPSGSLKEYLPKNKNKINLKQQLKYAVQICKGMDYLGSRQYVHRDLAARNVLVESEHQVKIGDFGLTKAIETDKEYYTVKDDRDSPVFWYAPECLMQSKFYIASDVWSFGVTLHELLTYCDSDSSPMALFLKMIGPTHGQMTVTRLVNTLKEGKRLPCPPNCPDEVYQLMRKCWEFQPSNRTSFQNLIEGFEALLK

ERK2 = ERK2 (Homo sapiens, UniProt P28482); assay: as above; conditions: for Percent bound at 1.87 μM 16742 conc / Percent bound at 8.74 μM 16742 conc / Percent bound at 52 μM 16742 conc / Kd: Erk2
Sequence of ERK2 (P28482 whole entry): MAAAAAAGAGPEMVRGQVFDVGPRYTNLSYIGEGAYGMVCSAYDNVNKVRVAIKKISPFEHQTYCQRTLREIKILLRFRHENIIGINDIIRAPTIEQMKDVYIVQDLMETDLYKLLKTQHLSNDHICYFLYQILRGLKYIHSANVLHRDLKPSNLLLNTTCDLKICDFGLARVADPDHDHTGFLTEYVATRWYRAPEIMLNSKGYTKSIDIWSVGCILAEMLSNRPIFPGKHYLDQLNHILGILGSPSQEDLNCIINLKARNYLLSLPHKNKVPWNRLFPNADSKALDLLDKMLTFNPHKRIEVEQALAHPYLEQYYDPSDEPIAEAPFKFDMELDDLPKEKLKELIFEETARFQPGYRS

TLK2 = target: T1, TLK2 (Homo sapiens, UniProt Q86UE8); assay: as above
T1 construct: endogenous in cells; host or cells: HeLa S3
T1 sequence (Q86UE8 whole entry): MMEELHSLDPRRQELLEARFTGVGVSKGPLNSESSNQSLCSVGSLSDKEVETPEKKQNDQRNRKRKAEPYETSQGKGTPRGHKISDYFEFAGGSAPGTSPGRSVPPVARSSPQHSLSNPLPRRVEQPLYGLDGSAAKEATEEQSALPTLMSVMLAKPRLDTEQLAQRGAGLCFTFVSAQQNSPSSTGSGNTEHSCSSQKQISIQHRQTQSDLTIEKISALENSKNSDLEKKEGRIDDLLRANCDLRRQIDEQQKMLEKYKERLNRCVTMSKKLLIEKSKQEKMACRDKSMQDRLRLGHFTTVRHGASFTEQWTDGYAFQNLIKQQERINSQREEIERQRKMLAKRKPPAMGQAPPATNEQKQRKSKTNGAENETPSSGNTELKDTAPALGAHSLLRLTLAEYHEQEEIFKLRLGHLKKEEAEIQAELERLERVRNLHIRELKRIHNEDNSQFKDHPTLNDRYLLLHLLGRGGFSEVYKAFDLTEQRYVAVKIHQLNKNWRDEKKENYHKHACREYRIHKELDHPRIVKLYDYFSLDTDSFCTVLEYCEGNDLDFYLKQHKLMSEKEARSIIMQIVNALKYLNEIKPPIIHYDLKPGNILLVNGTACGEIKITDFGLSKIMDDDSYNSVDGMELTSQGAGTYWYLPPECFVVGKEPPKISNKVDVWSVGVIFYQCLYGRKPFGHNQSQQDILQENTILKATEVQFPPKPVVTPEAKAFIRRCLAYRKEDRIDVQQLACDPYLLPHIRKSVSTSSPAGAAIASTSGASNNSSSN

GSK3B = GSK3B (Homo sapiens, UniProt P49841); assay: as above
Sequence of GSK3B (P49841 whole entry): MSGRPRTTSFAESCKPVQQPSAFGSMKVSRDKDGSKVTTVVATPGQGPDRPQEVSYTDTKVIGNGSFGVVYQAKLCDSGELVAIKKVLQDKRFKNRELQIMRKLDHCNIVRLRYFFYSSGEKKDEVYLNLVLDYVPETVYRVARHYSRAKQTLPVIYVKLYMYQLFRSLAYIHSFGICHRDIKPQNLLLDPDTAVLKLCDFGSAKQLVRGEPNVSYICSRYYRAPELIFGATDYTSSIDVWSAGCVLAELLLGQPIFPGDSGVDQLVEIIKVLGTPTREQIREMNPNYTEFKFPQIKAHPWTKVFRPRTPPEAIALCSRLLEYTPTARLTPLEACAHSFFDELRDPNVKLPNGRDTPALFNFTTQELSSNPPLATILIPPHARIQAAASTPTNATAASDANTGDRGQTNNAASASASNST

SgK085 (MYLK3) = target: T2, SgK085 (MYLK3) (Homo sapiens, UniProt Q32MK0)
T2 sequence (Q32MK0 1-819): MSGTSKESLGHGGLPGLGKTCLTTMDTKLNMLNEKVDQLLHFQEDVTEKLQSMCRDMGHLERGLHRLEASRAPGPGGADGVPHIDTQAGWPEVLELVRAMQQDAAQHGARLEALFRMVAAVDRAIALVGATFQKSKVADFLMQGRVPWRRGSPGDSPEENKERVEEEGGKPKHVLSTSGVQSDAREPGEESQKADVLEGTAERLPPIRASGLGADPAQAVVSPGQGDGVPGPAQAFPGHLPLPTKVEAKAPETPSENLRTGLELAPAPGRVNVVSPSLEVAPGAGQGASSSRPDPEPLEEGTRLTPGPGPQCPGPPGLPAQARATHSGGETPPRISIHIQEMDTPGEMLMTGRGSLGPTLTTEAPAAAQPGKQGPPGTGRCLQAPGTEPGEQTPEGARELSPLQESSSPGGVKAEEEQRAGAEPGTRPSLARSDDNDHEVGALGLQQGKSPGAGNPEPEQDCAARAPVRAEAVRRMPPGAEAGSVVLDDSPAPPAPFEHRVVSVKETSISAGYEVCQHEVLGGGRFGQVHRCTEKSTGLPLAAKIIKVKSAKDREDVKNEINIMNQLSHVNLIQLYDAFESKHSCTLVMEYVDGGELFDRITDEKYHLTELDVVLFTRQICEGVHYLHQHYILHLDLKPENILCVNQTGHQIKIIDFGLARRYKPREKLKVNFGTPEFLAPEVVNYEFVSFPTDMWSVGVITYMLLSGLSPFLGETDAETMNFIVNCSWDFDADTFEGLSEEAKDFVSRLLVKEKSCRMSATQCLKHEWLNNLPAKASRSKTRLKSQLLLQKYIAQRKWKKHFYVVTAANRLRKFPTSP

[1] = immobilized V16742, read-out: Kd

Sequence of JNK2 (P45984 whole entry): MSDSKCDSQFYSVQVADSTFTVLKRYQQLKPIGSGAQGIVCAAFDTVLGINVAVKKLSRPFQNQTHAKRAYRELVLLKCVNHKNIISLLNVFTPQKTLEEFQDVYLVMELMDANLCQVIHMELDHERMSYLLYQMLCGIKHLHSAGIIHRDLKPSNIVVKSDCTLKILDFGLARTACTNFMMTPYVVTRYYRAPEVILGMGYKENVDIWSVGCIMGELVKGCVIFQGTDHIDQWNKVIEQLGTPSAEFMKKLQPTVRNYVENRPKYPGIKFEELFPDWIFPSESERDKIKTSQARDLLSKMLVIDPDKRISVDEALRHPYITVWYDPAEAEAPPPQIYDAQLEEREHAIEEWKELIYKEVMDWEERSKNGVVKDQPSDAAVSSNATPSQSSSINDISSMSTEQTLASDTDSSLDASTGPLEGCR
Sequence of RIPK2 (O43353 whole entry): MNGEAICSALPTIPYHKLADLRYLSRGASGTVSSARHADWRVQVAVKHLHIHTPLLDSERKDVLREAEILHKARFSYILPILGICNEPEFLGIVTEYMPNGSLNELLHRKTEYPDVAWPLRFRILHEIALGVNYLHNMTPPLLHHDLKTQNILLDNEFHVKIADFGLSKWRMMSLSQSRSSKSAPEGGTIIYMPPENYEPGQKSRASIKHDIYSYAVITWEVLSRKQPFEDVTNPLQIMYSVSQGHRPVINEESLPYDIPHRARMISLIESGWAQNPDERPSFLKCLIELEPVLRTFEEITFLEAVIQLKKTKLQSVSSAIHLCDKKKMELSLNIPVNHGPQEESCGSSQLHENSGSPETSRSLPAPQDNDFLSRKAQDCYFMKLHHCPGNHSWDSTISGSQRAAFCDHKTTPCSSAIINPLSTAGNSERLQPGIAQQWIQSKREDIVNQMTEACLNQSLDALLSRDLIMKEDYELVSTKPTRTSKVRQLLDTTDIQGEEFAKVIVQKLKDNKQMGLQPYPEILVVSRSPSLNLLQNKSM

## CC(C)n1c(=O)ccc2cnc(Nc3ccc(OCCN)cc3)nc21 [V16742]
RIPK2
  affinity class of target for V16742: Moderate affinity target
JNK2
  affinity class of target for V16742: High affinity target
BRD4; [1]
  Kd: 32 µM
JAK1; [1]
  Kd: 11.1 µM
ERK2; ERK2
  affinity class of target for V16742: Low affinity target
TLK2; Experiment 1, 1.87 μM 16742
  Percent bound at various 16742 conc: 2.49%
TLK2; Experiment 1, 8.74 μM 16742
  Percent bound at various 16742 conc: 3.89%
TLK2; Experiment 1, 52 μM 16742
  Percent bound at various 16742 conc: 58.72%
TLK2; Experiment 1, read-out: Kd
  Kd: 47.3 µM
TLK2; Experiment 2, 1.87 μM 16742
  Percent bound at various 16742 conc: 1.24%
TLK2; Experiment 2, 8.74 μM 16742
  Percent bound at various 16742 conc: 3.73%
TLK2; Experiment 2, 52 μM 16742
  Percent bound at various 16742 conc: 41.78%
TLK2; Experiment 2, read-out: Kd
  Kd: 80 µM
TLK2; average of two experiments, read-out: Kd Avg
  Kd: 63.7 µM

## CC(C)n1c(=O)ccc2cnc(Nc3ccc(OCCN)cc3)nc21 [compound 16742]
RIPK2; EXPERIMENT 1
  Percent bound at 1.87 μM 16742 conc: 3.74%
  Percent bound at 8.74 μM 16742 conc: 42.39%
  Percent bound at 52 μM 16742 conc: 91.89%
RIPK2; EXPERIMENT 1, read-out: Kd
  Kd: 11.4 µM
RIPK2; EXPERIMENT 2
  Percent bound at 1.87 μM 16742 conc: 5.20%
  Percent bound at 8.74 μM 16742 conc: 38.79%
  Percent bound at 52 μM 16742 conc: 90.30%
RIPK2; EXPERIMENT 2, read-out: Kd
  Kd: 12.4 µM
RIPK2; read-out: Kd Avg
  Kd: 11.9 µM
JNK2; EXPERIMENT 1
  Percent bound at 1.87 μM 16742 conc: 68.10%
  Percent bound at 8.74 μM 16742 conc: 89.45%
  Percent bound at 52 μM 16742 conc: 92.48%
JNK2; EXPERIMENT 1, read-out: Kd
  Kd: 910 nM
JNK2; EXPERIMENT 2
  Percent bound at 1.87 μM 16742 conc: 57.18%
  Percent bound at 8.74 μM 16742 conc: 75.70%
  Percent bound at 52 μM 16742 conc: 94.94%
JNK2; EXPERIMENT 2, read-out: Kd
  Kd: 1690 nM
JNK2; read-out: Kd Avg
  Kd: 1300 nM
GSK3B; EXPERIMENT 1
  Percent bound at 1.87 μM 16742 conc: 12.33%
  Percent bound at 8.74 μM 16742 conc: 51.81%
  Percent bound at 52 μM 16742 conc: 91.30%
GSK3B; EXPERIMENT 1, read-out: Kd
  Kd: 8.44 µM
GSK3B; EXPERIMENT 2
  Percent bound at 1.87 μM 16742 conc: 8.04%
  Percent bound at 8.74 μM 16742 conc: 41.97%
  Percent bound at 52 μM 16742 conc: 88.20%
GSK3B; EXPERIMENT 2, read-out: Kd
  Kd: 11.6 µM
GSK3B; read-out: Kd Avg
  Kd: 10 µM
BRD4; EXPERIMENT 1
  Percent bound at 1.87 μM 16742 conc: 0.33%
  Percent bound at 8.74 μM 16742 conc: 6.55%
  Percent bound at 52 μM 16742 conc: 73.70%
BRD4; EXPERIMENT 2
  Percent bound at 52 μM 16742 conc: 61.49%
BRD4; read-out: Kd Avg
  Kd: 32 µM
JAK1; EXPERIMENT 1
  Percent bound at 1.87 μM 16742 conc: 16.10%
  Percent bound at 8.74 μM 16742 conc: 75.89%
  Percent bound at 52 μM 16742 conc: 90.34%
JAK1; EXPERIMENT 1, read-out: Kd
  Kd: 4.76 µM
JAK1; EXPERIMENT 2
  Percent bound at 1.87 μM 16742 conc: 8.59%
  Percent bound at 8.74 μM 16742 conc: 30.74%
  Percent bound at 52 μM 16742 conc: 78.69%
JAK1; EXPERIMENT 2, read-out: Kd
  Kd: 17.4 µM
JAK1; read-out: Kd Avg
  Kd: 11.1 µM
ERK2; EXPERIMENT 1
  Percent bound at 1.87 μM 16742 conc: 1.41%
  Percent bound at 8.74 μM 16742 conc: 5.40%
  Percent bound at 52 μM 16742 conc: 70.05%
ERK2; EXPERIMENT 1, read-out: Kd
  Kd: 35.1 µM
ERK2; EXPERIMENT 2
  Percent bound at 1.87 μM 16742 conc: 2.43%
  Percent bound at 8.74 μM 16742 conc: 5.90%
  Percent bound at 52 μM 16742 conc: 65.58%
ERK2; EXPERIMENT 2, read-out: Kd
  Kd: 38.5 µM
ERK2; read-out: Kd Avg
  Kd: 36.8 µM

## COc1cc2ncnc(Nc3ccc(F)c(Cl)c3)c2cc1OCCCN1CCOCC1 [gefitinib]
SgK085 (MYLK3)
  rAVERAGE (10 nM/0 nM Gef.): 0.97
  rAVERAGE (100 nM/0 nM Gef.): 1.01
  rAVERAGE (1000 nM/0 nM Gef.): 0.98
  rAVERAGE (10000 nM/0 nM Gef.): 0.53
